System: epithelial cells and mesenchymal cells (hair follicle germ)
Test: co-culture of epithelial cells and mesenchymal cells in culture solution with dispersed additive; formation of hair shaft-like structure in hair follicle germ
Type: cell-based, C57BL/6 mouse
Details: for formation of hair follicle germ having a hair shaft-like structure: up to day 8 of culture
Procedure: A dorsal skin tissue was collected from a C57BL/6 mouse embryo at embryonic day 18, and was subjected to dispase treatment by a partially modified version of a method reported by […]. (Koh-ei Toyoshima et al. Nature Communications, 3, 784, 2012) at 4° C. under the shaking condition of 30 rpm for 1 hour to separate the epithelial layer and mesenchymal layer of the skin tissue. After that, the epithelial layer was treated with 100 U/mL collagenase for 1 hour and 20 minutes and further treated with trypsin for 10 minutes to isolate epithelial cells. In addition, the mesenchymal layer was treated with 100 U/mL collagenase for 1 hour and 20 minutes to isolate mesenchymal cells.
In example 1-1, the epithelial cells and the mesenchymal cells were co-cultured using a culture solution containing laminin, entactin, and type IV collagen. First, DMEM/F12 medium (Advanced Dulbecco's Modified Eagle Medi um/Ham's F-12, GIBCO® containing 1% GLUTAMAX® Supplement (L-glutamine supplement in […], GIBCO® and 0.2% NORMOCIN® (antimicrobial agent, INVIVOGEN®) was prepared as the culture solution.
Then, the epithelial cells and the mesenchymal cells in such amounts as to achieve a cell density of 5×10^3 cells/mL each (such amounts as to achieve a total cell density of 1×10^4 cells/mL) were suspended in the culture solution, and MATRIGEL® (MATRIGEL® Basement Membrane Matrix, CORNING®) in such an amount as to achieve a concentration of 1 v/v % was further added to prepare a cell suspension.
The Matrigel product used contained 10.6 mg/mL (protein amount measured by the Lowry method) of a soluble basement membrane matrix extracted from an Engelbreth-Holm-Swarm (EHS) mouse tumor, and a compositional ratio in the basement membrane matrix was as follows: 56% of laminin, 8% of entactin, and 31% of type IV collagen.
100 μL of the cell suspension was placed in each well of a 96-well plate (Prime surface (trademark), Sumitomo Bakelite Co., Ltd.) to inoculate the epithelial cells and the mesenchymal cells. […]

laminin
formation of hair shaft-like structure in hair follicle germ (1 v/v % of product at inoculation, day 8 of culture (examples 5-1, 5-2, 5-3, 6)): had no hair shaft-like structure formed therein
formation of hair follicle germ having a hair shaft-like structure (example C1-1: 5 v/v % of product (39 to 41 μg/mL laminin)): a hair follicle germ having a hair shaft-like structure was not formed
formation of hair follicle germ having a hair shaft-like structure (example C1-2: 10 v/v % of product (78 to 82 μg/mL laminin)): a hair follicle germ having a hair shaft-like structure was not formed

From US12655387B2, “Hair follicle primordia and method for producing same” (National University Corporation Yokohama National University, priority 2019, dated 2026)
